Data taken from patent US8486977B2, “1,2,3-triazole derivatives for use as stearoyl-CoA desaturase inhibitors” (GlaxoSmithKline LLC, priority 2007, dated 2013).

For `Cc1c(C(=O)Nc2ccc(C(=O)O)cc2)nnn1Cc1ccc(Cl)c(Cl)c1` [Example 66, 4-[({1-[(3,4-Dichlorophenyl)methyl]-5-methyl-1H-1,2,3-triazol-4-yl}carbonyl)amino]benzoic acid], the melting point was > 260 °C.
In the case of `Cc1c(C(=O)Nc2ccc(OCCC(C)C)cc2)nnn1Cc1ccc(C(C)C)cc1`, the melting point was 114 °C (dec.).

In order of rising melting point:
1. Cc1c(C(=O)Nc2cccc(C(C)(C)O)c2)nnn1Cc1ccc(Cl)c(Cl)c1 [Example 76, 1-[(3,4-Dichlorophenyl)methyl]-N-[3-(1-hydroxy-1-methylethyl)phenyl]-5-methyl-1H-1,2,3-triazole-4-carboxamide]  58 °C
2. Cc1ccc(Cn2nnc(C(=O)Nc3ccc(OCCC(C)C)cc3)c2C)cc1  105 °C
3. Cc1c(C(=O)Nc2cccc(CO)c2)nnn1Cc1ccccc1 [Example 37, N-[3-(Hydroxymethyl)phenyl]-5-methyl-1-(phenylmethyl)-1H-1,2,3-triazole-4-carboxamide]  105.8 °C
4. Cc1c(C(=O)Nc2ccc(OCCC(C)C)cc2)nnn1Cc1ccc(F)cc1  114 °C
5. COc1ccc(NC(=O)c2nnn(Cc3ccc(F)cc3)c2C)cc1OC  119.7 °C
6. Cc1c(CNc2cc(CO)cc(CO)c2)nnn1Cc1ccc(Cl)c(Cl)c1 [Example 79, {5-[({1-[(3,4-Dichlorophenyl)methyl]-5-methyl-1H-1,2,3-triazol-4-yl}methyl)amino]benzene-1,3-diyl}dimethanol]  120 °C
7. Cc1c(C(=O)Nc2cccc(CO)c2)nnn1Cc1cccc(F)c1 [Example 89, 1-[(3-Fluorophenyl)methyl]-N-[3-(hydroxymethyl)phenyl]-5-methyl-1H-1,2,3-triazole-4-carboxamide]  124.7 °C
8. Cc1c(C(=O)Nc2ccc(CO)cc2)nnn1Cc1cccc(F)c1 [Example 91, 1-[(3-Fluorophenyl)methyl]-N-[4-(hydroxymethyl)phenyl]-5-methyl-1H-1,2,3-triazole-4-carboxamide]  134.3 °C
9. COc1cc(CO)ccc1NC(=O)c1nnn(Cc2ccc(Cl)c(Cl)c2)c1C [Example 49, 1-[(3,4-Dichlorophenyl)methyl]-N-[4-(hydroxymethyl)-2-(methyloxy)phenyl]-5-methyl-1H-1,2,3-triazole-4-carboxamide]  136 °C
10. Cc1c(C(=O)Nc2ccc(CO)cc2)nnn1Cc1cccc(Cl)c1 [Example 88, 1-[(3-Chlorophenyl)methyl]-N-[4-(hydroxymethyl)phenyl]-5-methyl-1H-1,2,3-triazole-4-carboxamide]  136.2 °C
11. Cc1c(C(=O)Nc2ccc(OCCC(C)C)cc2)nnn1Cc1ccc(Br)cc1  137 °C
12. COc1ccc(CCO)cc1NC(=O)c1nnn(Cc2ccc(Cl)c(Cl)c2)c1C [Example 54, 1-[(3,4-Dichlorophenyl)methyl]-N-[5-(2-hydroxyethyl)-2-(methyloxy)phenyl]-5-methyl-1H-1,2,3-triazole-4-carboxamide]  138 °C
13. CCOC(=O)Cc1ccc(NC(=O)c2nnn(Cc3ccc(Cl)c(Cl)c3)c2C)cc1 [Example 27, Ethyl {4-[({1-[(3,4-dichlorophenyl)methyl]-5-methyl-1H-1,2,3-triazol-4-yl}carbonyl)amino]phenyl}acetate]  139 °C
14. Cc1c(C(=O)Nc2ccc(OCc3ccccc3)cc2)nnn1Cc1ccc(F)cc1 [Example 4, 1-[(4-Fluorophenyl)methyl]-5-methyl-N-{4-[(phenylmethyl)oxy]phenyl}-1H-1,2,3-triazole-4-carboxamide]  139.4 °C
15. Cc1c(C(=O)Nc2ccc(OCCO)cc2)nnn1Cc1ccc(Cl)c(Cl)c1 [Example 74, 1-[(3,4-Dichlorophenyl)methyl]-N-{4-[(2-hydroxyethyl)oxy]phenyl}-5-methyl-1H-1,2,3-triazole-4-carboxamide]  140 °C
16. Cc1c(C(=O)Nc2cccc(CCO)c2)nnn1Cc1ccc(Cl)c(Cl)c1 [Example 62, 1-[(3,4-Dichlorophenyl)methyl]-N-[3-(2-hydroxyethyl)phenyl]-5-methyl-1H-1,2,3-triazole-4-carboxamide]  142 °C
17. Cc1c(C(=O)Nc2cccc(CO)c2)nnn1Cc1ccc(F)cc1 [Example 87, 1-[(4-Fluorophenyl)methyl]-N-[3-(hydroxymethyl)phenyl]-5-methyl-1H-1,2,3-triazole-4-carboxamide]  142.1 °C
18. Cc1c(C(=O)Nc2ccc(CO)cc2)nnn1Cc1ccc(F)cc1 [Example 90, 1-[(4-Fluorophenyl)methyl]-N-[4-(hydroxymethyl)phenyl]-5-methyl-1H-1,2,3-triazole-4-carboxamide]  145.6 °C
19. Cc1c(C(=O)Nc2cc(CO)cc(CO)c2)nnn1Cc1ccccc1 [Example 60, N-[3,5-bis(Hydroxymethyl)phenyl]-5-methyl-1-(phenylmethyl)-1H-1,2,3-triazole-4-carboxamide]  148.2 °C
20. Cc1c(C(=O)Nc2ccc(CO)cc2)nnn1Cc1ccccc1 [Example 38, N-[4-(Hydroxymethyl)phenyl]-5-methyl-1-(phenylmethyl)-1H-1,2,3-triazole-4-carboxamide]  149.1 °C
21. Cc1c(C(=O)Nc2cccc(CO)c2)nnn1Cc1cccc(Cl)c1 [Example 86, 1-[(3-Chlorophenyl)methyl]-N-[3-(hydroxymethyl)phenyl]-5-methyl-1H-1,2,3-triazole-4-carboxamide]  151.9 °C
22. Cc1c(C(=O)Nc2ccc(CO)c(CO)c2)nnn1Cc1cccc(Cl)c1 [Example 82, N-[3,4-bis(Hydroxymethyl)phenyl]-1-[(3-chlorophenyl)methyl]-5-methyl-1H-1,2,3-triazole-4-carboxamide]  157 °C
23. Cc1c(C(=O)Nc2ccc(OCCN(C)C)c(CO)c2)nnn1Cc1ccc(Cl)c(Cl)c1 [Example 77, 1-[(3,4-Dichlorophenyl)methyl]-N-[4-{[2-(dimethylamino)ethyl]oxy}-3-(hydroxymethyl)phenyl]-5-methyl-1H-1,2,3-triazole-4-carboxamide]  163.1 °C
24. C=C(C)c1ccc(NC(=O)c2nnn(Cc3ccc(Cl)c(Cl)c3)c2C)c(OC)c1  170 °C
25. COc1ccc(NC(=O)c2nnn(Cc3ccc(Br)cc3)c2C)cc1OC  173 °C
26. Cc1c(CO)cccc1NC(=O)c1nnn(Cc2ccc(Cl)c(Cl)c2)c1C [Example 23, 1-[(3,4-Dichlorophenyl)methyl]-N-[3-(hydroxymethyl)-2-methylphenyl]-5-methyl-1H-1,2,3-triazole-4-carboxamide]  174.3 °C
27. COC(=O)c1cc(NC(=O)c2nnn(Cc3ccc(Cl)c(Cl)c3)c2C)ccc1O [Example 29, Methyl 5-[({1-[(3,4-dichlorophenyl)methyl]-5-methyl-1H-1,2,3-triazol-4-yl}carbonyl)amino]-2-hydroxybenzoate]  180 °C
28. Cc1c(CO)cccc1NC(=O)c1nnn(Cc2cc(Cl)cc(Cl)c2)c1C [Example 42, 1-[(3,5-Dichlorophenyl)methyl]-N-[3-(hydroxymethyl)-2-methylphenyl]-5-methyl-1H-1,2,3-triazole-4-carboxamide]  185 °C
29. Cc1c(C(=O)Nc2cccc(C(=O)NCCO)c2)nnn1Cc1ccc(Cl)c(Cl)c1 [Example 68, 1-[(3,4-Dichlorophenyl)methyl]-N-(3-{[(2-hydroxyethyl)amino]carbonyl}phenyl)-5-methyl-1H-1,2,3-triazole-4-carboxamide]  190.7 °C
30. CCNC(=O)c1cccc(NC(=O)c2nnn(Cc3ccc(Cl)c(Cl)c3)c2C)c1 [Example 67, 1-[(3,4-Dichlorophenyl)methyl]-N-{3-[(ethylamino)carbonyl]phenyl}-5-methyl-1H-1,2,3-triazole-4-carboxamide]  192.2 °C
31. Cc1c(C(=O)Nc2cc(CO)cc(CO)c2)nnn1Cc1cccc(Cl)c1 [Example 61, -[3,5-bis(Hydroxymethyl)phenyl]-1-[(3-chlorophenyl)methyl]-5-methyl-1H-1,2,3-triazole-4-carboxamide]  192.7 °C
32. Cc1c(C(=O)Nc2cc(CO)cc(CO)c2)nnn1Cc1ccc(Cl)c(Cl)c1 [Example 52, N-[3,5-bis(Hydroxymethyl)phenyl]-1-[(3,4-dichlorophenyl)methyl]-5-methyl-1H-1,2,3-triazole-4-carboxamide]  194.5 °C
33. COC(=O)c1ccc(F)c(NC(=O)c2nnn(Cc3ccc(Cl)c(Cl)c3)c2C)c1 [Example 36, Methyl 3-[({1-[(3,4-dichlorophenyl)methyl]-5-methyl-1H-1,2,3-triazol-4-yl}carbonyl)amino]-4-fluorobenzoate]  195.7 °C
34. COc1ccc(NC(=O)c2cn(Cc3ccc(F)cc3)nn2)cc1OC  197.8 °C
35. CC(=O)Nc1ccc(NC(=O)c2nnn(Cc3ccc(Cl)c(Cl)c3)c2C)cc1 [Example 22, N-[4-(Acetylamino)phenyl]-1-[(3,4-dichlorophenyl)methyl]-5-methyl-1H-1,2,3-triazole-4-carboxamide]  202.4 °C
36. Cc1c(C(=O)Nc2ccc(CO)c(CO)c2)nnn1Cc1ccc(Cl)c(Cl)c1 [Example 58, N-[3,4-bis(Hydroxymethyl)phenyl]-1-[(3,4-dichlorophenyl)methyl]-5-methyl-1H-1,2,3-triazole-4-carboxamide]  203 °C
37. COC(=O)c1ccc(NC(=O)c2nnn(Cc3ccc(Cl)c(Cl)c3)c2C)c(OC)c1 [Example 17, Methyl 4-[({1-[(3,4-dichlorophenyl)methyl]-5-methyl-1H-1,2,3-triazol-4-yl}carbonyl)amino]-3-(methyloxy)benzoate]  212 °C
38. Cc1c(C(=O)Nc2ccc(-c3ncco3)cc2)nnn1Cc1ccc(Cl)c(Cl)c1 [Example 15, 1-[(3,4-Dichlorophenyl)methyl]-5-methyl-N-[4-(1,3-oxazol-2-yl)phenyl]-1H-1,2,3-triazole-4-carboxamide]  218 °C
39. COc1ccc(C(N)=O)cc1NC(=O)c1nnn(Cc2ccc(Cl)c(Cl)c2)c1C [Example 33, N-[5-(Aminocarbonyl)-2-(methyloxy)phenyl]-1-[(3,4-dichlorophenyl)methyl]-5-methyl-1H-1,2,3-triazole-4-carboxamide]  218.2 °C
